What is called GI50 is the concentration giving 50% growth inhibition. In general, TGI refers to the concentration at which net growth stops. A low value points to more potent growth arrest.

Among the test systems are HCC-2998 colon; HCT-116 colon; HOP-62 NSCLC; HOP-92 NSCLC; K-562 leukemia; KM12 colon; M14 melanoma; NCI-H226 lung; SNB-19 CNS; T-47D breast.
Assay in all cases: DTP human tumour cell line panel, 48 h

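Tested at 5 concentrations; 48 h exposure; 96-well plates; endpoints linearly interpolated, else capped at highest concentration. GI50 = concentration required for 50% inhibition of growth. TGI marks complete inhibition of growth.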

With `CC(C)C[C@H](NC(=O)Cn1ccc(NCc2ccccc2)cc1=O)B(O)O`, the GI50 in the assay on HCC-2998 colon is 2210 nM; with HCT-116 colon it was 576 nM; with HOP-62 NSCLC, 4860 nM; in the assay with HOP-92 NSCLC, 2390 nM; in the assay with K-562 leukemia, 3480 nM; in the assay with KM12 colon it was 3620 nM. Also, the GI50 in the assay on M14 melanoma is 1350 nM; in the assay with NCI-H226 lung, 1190 nM; in the assay with SNB-19 CNS, 4960 nM; in the assay on T-47D breast it was 785 nM. Besides, the TGI is 5730 nM in the assay with HCC-2998 colon; 3660 nM in the assay on HCT-116 colon; 29500 nM in the assay with HOP-62 NSCLC; 8350 nM in the assay on HOP-92 NSCLC; over 100000 nM in the assay with K-562 leukemia; 17100 nM in the assay on KM12 colon. Moreover, the TGI was 7080 nM in the assay on M14 melanoma, 5840 nM in the assay with NCI-H226 lung, over 100000 nM with SNB-19 CNS and 12400 nM with T-47D breast.
For the molecule `CCCN(CCC)c1ccc(/C=C/c2ccc3cc(OCC)ccc3n2)cc1`, the GI50 in the assay with HCC-2998 colon is over 100000 nM; in the assay with HCT-116 colon, 31600 nM; in the assay on HOP-62 NSCLC, over 100000 nM; with HOP-92 NSCLC it was over 100000 nM; in the assay on K-562 leukemia, 9370 nM; with KM12 colon, over 100000 nM. The GI50 in the assay on M14 melanoma was over 100000 nM; in the assay on NCI-H226 lung, 58600 nM; in the assay with SNB-19 CNS, over 100000 nM; with T-47D breast, 15900 nM. The TGI with HCC-2998 colon, with HCT-116 colon, in the assay on HOP-62 NSCLC, in the assay on HOP-92 NSCLC, in the assay with K-562 leukemia and in the assay on KM12 colon was over 100000 nM each time. The TGI in the assay on M14 melanoma, in the assay with NCI-H226 lung, in the assay on SNB-19 CNS and with T-47D breast was over 100000 nM each time.
Consider `C=C1C(=O)O[C@H]2[C@H]1CC/C(COC(=O)c1cc3ccccc3o1)=C\CC[C@@]1(C)O[C@@H]21`, for which the GI50 is 2470 nM with HCC-2998 colon; 320 nM in the assay with HCT-116 colon; 2480 nM in the assay with HOP-62 NSCLC; 1440 nM in the assay on HOP-92 NSCLC; 1150 nM in the assay with K-562 leukemia; 2020 nM in the assay with KM12 colon. For the same molecule, the GI50 was 1430 nM in the assay with M14 melanoma, 1740 nM in the assay with NCI-H226 lung, 3160 nM in the assay with SNB-19 CNS and 1350 nM with T-47D breast. The TGI in the assay with HCC-2998 colon came out at 5840 nM; in the assay on HCT-116 colon it was 1300 nM; with HOP-62 NSCLC, 7070 nM; with HOP-92 NSCLC it was 3100 nM; in the assay with K-562 leukemia it was 7430 nM; in the assay on KM12 colon, 4610 nM. Besides, the TGI with M14 melanoma is 3130 nM; in the assay on NCI-H226 lung it was 3600 nM; in the assay with SNB-19 CNS it was 13300 nM; with T-47D breast, 3320 nM.
Consider `C=C(C)[C@@H]1CC[C@]2(C(=O)O)CC[C@]3(C)[C@H](CC[C@@H]4[C@@]5(C)CCC(NC(=O)c6cccc(OC(C)=O)c6OC(C)=O)C(C)(C)[C@@H]5CC[C@]43C)[C@@H]12` (stereo not given in full), for which the GI50 in the assay with HCC-2998 colon is 1570 nM; in the assay with HCT-116 colon, 376 nM; in the assay with HOP-62 NSCLC it was 785 nM; in the assay on HOP-92 NSCLC, 439 nM; with K-562 leukemia, 332 nM; in the assay with KM12 colon, 651 nM. The GI50 with M14 melanoma was 399 nM; in the assay with NCI-H226 lung, 1690 nM; in the assay on SNB-19 CNS, 832 nM; in the assay with T-47D breast, 628 nM. Further, the concentration for total growth inhibition (TGI) with HCC-2998 colon is 4510 nM; in the assay on HCT-116 colon, 1540 nM; in the assay on HOP-62 NSCLC, 3300 nM; with HOP-92 NSCLC it was 2250 nM; in the assay with K-562 leukemia it was over 45700 nM; in the assay on KM12 colon it was 3460 nM. In addition, the TGI was 2250 nM with M14 melanoma, 4590 nM in the assay on NCI-H226 lung, 25700 nM in the assay on SNB-19 CNS and over 100000 nM with T-47D breast.
Take `O=C(O)CCCSc1ccccc1`: the TGI in the assay on HCC-2998 colon, in the assay on HCT-116 colon, with HOP-62 NSCLC, in the assay with HOP-92 NSCLC, with K-562 leukemia and with KM12 colon was over 100000 nM throughout. In addition, the TGI with M14 melanoma, in the assay on NCI-H226 lung, in the assay on SNB-19 CNS and in the assay with T-47D breast was over 100000 nM each time.
Consider `CC(=O)N1C/C(=C/c2ccc(Cl)cc2)C(=O)/C(=C/c2ccc(Cl)cc2)C1`, for which the GI50 in the assay on HCC-2998 colon was 632 nM; in the assay with HCT-116 colon, 202 nM; in the assay with HOP-62 NSCLC, 516 nM; in the assay on HOP-92 NSCLC it was 1520 nM; in the assay on K-562 leukemia it was 335 nM; in the assay with KM12 colon, 255 nM. For the same molecule, the GI50 was 735 nM with M14 melanoma, 1170 nM in the assay with NCI-H226 lung, 1140 nM in the assay on SNB-19 CNS and 1310 nM in the assay on T-47D breast. The TGI is 1450 nM in the assay on HCC-2998 colon; 465 nM in the assay on HCT-116 colon; 1250 nM in the assay on HOP-62 NSCLC; 4060 nM in the assay with HOP-92 NSCLC; over 100000 nM in the assay with K-562 leukemia; 676 nM in the assay with KM12 colon. Further, the TGI came to 2110 nM in the assay with M14 melanoma, 3490 nM in the assay with NCI-H226 lung, 2490 nM in the assay on SNB-19 CNS and 3240 nM with T-47D breast.
Regarding `Nc1c2c(c(O)c3c1=C(CO)C=N3)=NCCS2`, the concentration for 50% growth inhibition (GI50) in the assay with HCC-2998 colon is 169 nM; in the assay with HCT-116 colon, 223 nM; in the assay on HOP-62 NSCLC, 175 nM; in the assay on HOP-92 NSCLC, 761 nM; with K-562 leukemia, 243 nM; in the assay with KM12 colon, 325 nM. Also, the GI50 in the assay with M14 melanoma is 83.9 nM; with NCI-H226 lung it was 199 nM; in the assay on SNB-19 CNS it was 147 nM; in the assay with T-47D breast it was 224 nM. In addition, the TGI amounted to 329 nM with HCC-2998 colon; 524 nM in the assay on HCT-116 colon; 317 nM in the assay on HOP-62 NSCLC; 2500 nM in the assay on HOP-92 NSCLC; 682 nM in the assay on K-562 leukemia; 1740 nM in the assay on KM12 colon. Besides, the TGI in the assay with M14 melanoma was determined as 215 nM; in the assay on NCI-H226 lung it was 471 nM; in the assay with SNB-19 CNS it was 284 nM; in the assay with T-47D breast, 484 nM.
For the molecule `C#CC1(OC(C)=O)CCC2C3CC=C4C=C(OC(C)=O)CCC4(C)C3CCC21C` (stereo not given), the TGI in the assay with HCC-2998 colon is 32900 nM; with HCT-116 colon, 44300 nM; in the assay on HOP-62 NSCLC, over 100000 nM; in the assay on HOP-92 NSCLC, 32900 nM; in the assay with K-562 leukemia it was 83200 nM; in the assay with KM12 colon, 40200 nM. Besides, the concentration for total growth inhibition (TGI) with M14 melanoma was 70300 nM; with NCI-H226 lung it was 63000 nM; in the assay on SNB-19 CNS, over 100000 nM; in the assay on T-47D breast, over 100000 nM.

The values are drawn from PubChem BioAssay (NCI).
